Data published in patent EP1330254B1, “TREATMENT OF CANCERS BY APLIDINE IN CONJUNCTION WITH CARNITINE OR ACETYLCARNITINE” (priority 2000, dated 2002).
Read-outs that look alike come from different tables or passages of the source. Starred links: 1 amine or outer side, 2 acyl side, 3 side chain; linkers in the order of their positions; H or OH if unused. Positions of bridges follow the written chain, without caps; N, C: chain ends. Non-standard residues stand in square brackets, D forms with d. Residues, ends and D or L forms follow the SMILES beside them. *: point of attachment. X1 = CC[C@H](C)[C@@H](N[*:1])[C@@H](O)CC(=O)O[C@H](C(=O)[C@H](C)C(=O)[*:2])C(C)C; NMeY = CN[C@@H](Cc1ccc(O)cc1)C(=O)O; dNMeL = CN[C@H](CC(C)C)C(=O)O; Pyruvoyl = CC(=O)C(=O)*

Columns and labels:
[1] = system: gene (FLT1) encoding the receptor of the Vascular Endothelial Growth Factor (VEGF); assay: inhibition of gene expression; assay type: cell-based
VEGF protein = assay: VEGF production by tumour cells; assay type: cell-based
human bladder cancer = assay: bladder cancer animal models; assay type: in vivo
[2] = stability of aplidine solution and lyophilised formulation; assay type: physicochemical; details: solubilised aplidine, heat and light stress testing conditions
Procedure: In a currently preferred embodiment freeze-drying was performed from a 500 mg/mL solution of aplidine in 40% (v/v) tert-butanol in Water for Injection (WfI) containing 25 mg/mL D-mannitol as bulking agent.

[3] = Phase I study, 24h continuous infusion every other week: toxicities; assay type: in vivo, human
Procedure: (§1) A phase I and pharmacokinetic study of aplidine, given as a 24h continuous infusion every other week in patients with solid tumours and non-Hodgkin lymphoma
Characterisation of Muscular Toxicity (DLT)

[4] = Phase I study, 24h continuous infusion every other week: pharmacokinetics; assay type: in vivo, human; details: for half-life: human, iv
Procedure: as §1

[5] = system: solid tumours and non-Hodgkin lymphoma; assay: Phase I study, 24h continuous infusion every other week: antitumour activity; assay type: in vivo, human; details: patients
Procedure: as §1

[6] = Phase I studies: features of aplidine myotoxicity; assay type: in vivo, human
From the text: The presentation is variable among patients. Mild cases have muscle cramps (at doses from 3200 mcg/m2 every 2 weeks), while in more severe cases the symptoms are associated to reversible increases in creatin-kinase (CK) reaching up to grade 3. In the dose-limiting cases there is weakness of proximal distribution. The effect has a delayed onset, appearing after 3 to 8 (median 4) infusions of the drug.

[7] = L-carnitine as myoprotector in aplidine patients (study APL-A-003-98); assay type: in vivo, human; details: every second week, 24-hour infusion, with L-carnitine 4.5 g/day or 0.1mg/kg
Procedure: More generally, the invention involves the use of a muscle protector in conjunction with aplidine therapy. We have found in particular that carnitine is beneficial in treating myotoxicity that is associated with chemotherapy with the experimental drug aplidine. […] When L-carnitine 4.5 g/day was added to the therapy (at doses of 1.5 g three times daily), or […] (at doses of […] 3 times daily) patients were able to tolerate doses of aplidine up to 6000 mcg/m 2 every second week. […] Therefore, muscle protectors such as L-carnitine is a useful myoprotector for patients being treated with aplidine or an aplidine analogue.
L-carnitine at a dose of 1.5 grams 3 times per day or 0.033 g/kg 3 times per day was started in all patients of study APL-A-003-98.
The dose may be decreased to manage the above effects.

MDA-MB231 = details: aplidine 50 nmol/L; cited from earlier work
MCF-7 = details: aplidine 50 nmol/L; cited from earlier work
CT-1 = CT-1 epithelial-like cell line; cited from earlier work
CT-2 = CT-2 epithelial-like cell line; cited from earlier work
HT-29 = HT-29 human colon cancer cell line; cited from earlier work
P388 leukaemia = details: mice; cited from earlier work
B16 melanoma = details: mice; cited from earlier work
lewis lung carcinomas = details: cited from earlier work
[8] = system: Non-small cell lung cancer, breast cancer and melanoma cell lines; details: continuous exposure; cited from earlier work
human cancer xenografts = details: cited from earlier work
gastric tumours = details: 1.25 mg/kg; cited from earlier work
prostate tumour = details: 1.25 mg/kg, prostate tumour growth inhibition; cited from earlier work
[9] = Phase I study, 24h continuous infusion every other week: toxicities; assay type: in vivo, human; details: Pat #27, medullary thyroid carcinoma, 6000 µg/m^2 weekly
[10] = 200 mcg/m^2/2wks, patients affected of 3
[11] = 400 mcg/m^2/2wks, patients affected of 3
[12] = 800 mcg/m^2/2wks, patients affected of 3
[13] = 1600 mcg/m^2/2wks, patients affected of 6
[14] = 3200 mcg/m^2/2wks, patients affected of 3
[15] = 4000 mcg/m^2/2wks, patients affected of 3
[16] = 5000 mcg/m^2/2wks, patients affected of 3
[17] = 6000 mcg/m^2/2wks, patients affected of 12
[18] = 7000 mcg/m^2/2wks, patients affected of 7

## CC[C@H](C)[C@H]1NC(=O)[C@@H](NC(=O)[C@@H](CC(C)C)N(C)C(=O)[C@@H]2CCCN2C(=O)C(C)=O)[C@@H](C)OC(=O)[C@H](Cc2ccc(OC)cc2)N(C)C(=O)[C@@H]2CCCN2C(=O)[C@H](CC(C)C)NC(=O)[C@@H](C)C(=O)[C@H](C(C)C)OC(=O)C[C@@H]1O [aplidine, Dehydrodidemnin B] (Pyruvoyl-P[dNMeL]T[X1]LP[NMeY](Me); ester 3-C)
[1]
  expression of the gene (FLT1): inhibits expression
VEGF protein
  production of the VEGF protein: severely inhibit production
Human bladder cancer
  activity on human bladder cancer: exceedingly high activity
[2]
  degradation: substantial degradation
[3]; 2 patients
  muscle biopsies, E/M: partial disappearance of thick filaments of myosin
[3]; 3 patients (5000 and 6000 µg/m^2), CPK MM increase
  CPK elevations: minor elevations of CPKs (≥G2)
[3]; [10]
  Nausea/vomiting G2: 2
  Transaminitis G2: 1
[3]; [11]
  Asthenia G2: 2
  Hypertension G2: 1
  Nausea/vomiting G2: 1
[3]; [12]
  Flushing G1: 1
  Muscle cramps G1+G2: 2
[3]; [13]
  Asthenia G2: 2
  Asthenia G3: 1
  Muscle cramps G1+G2: 1
  Nausea/vomiting G2: 4
  Transaminitis G3: (1)
[3]; [14]
  Asthenia G2: 1
  Flushing G1: 1
  Muscle cramps G1+G2: 2
  Muscle pain G2: (1)
  Nausea/vomiting G3: (1)
[3]; [15]
  Asthenia G2: 1
  Flushing G1: 1
  Muscle cramps G1+G2: 2
  Muscle pain G1: 2
  Nausea/vomiting G2: 2
  Pain central catheter G2: 2
[3]; [16]
  Asthenia G3: (1)
  CPK elevation G3: (1) [1]
  CPK elevation G4: (1) [1]
  Muscle cramps G1+G2: 2
  Muscle pain G1: 1
  Muscle weakness G1: 1
  Nausea/vomiting G2: 1
  Transaminitis G2: 1
[3]; 6000 mcg/m^2
  dose limiting toxicity (drug induced muscular changes): 1/9
[3]; [17]
  Asthenia G2: 6
  CPK elevation G2: 1(1)
  CPK elevation G3: 1(1)
  Muscle cramps G1+G2: 1
  Muscle pain G1: 1
  Muscle pain G2: 2
  Muscle weakness G1: 1(1)
  Muscle weakness G2: 1(1)
  Nausea/vomiting G2: 2
[3]; [18]
  Asthenia G2: 2
  CPK elevation G2: 1
  Flushing G1: 1
  Muscle pain G1: 1
  Nausea/vomiting G2: 1
  Neutrophenia G4: 1
  Transaminitis G2: 1
[3]; Pat #27, 6000 µg/m^2
  toxicity recovered after treatment discontinuation: ≤ 3 weeks
[4]; in vivo, the 3 patients with clear muscular toxicity, read-out: t ½
  half-life: > 44 h
[4]; plasma, preliminary compartmental analysis, 24 h infusion, read-out: median half-life, longer terminal phase (converted)
  half-life: 25.8 h
[4]; plasma, preliminary compartmental analysis, first-order 2-compartment model, read-out: median half-life, rapid initial phase (converted)
  half-life: 0.64 h
[4]; plasma, quartiles 15.7-35.0, read-out: t ½, median (converted)
  half-life: 23.8 h
[4]; within the constraints of the low sample size
  PK profile: dose-linear
[5]
  antitumour activity: noted in patients with NHL and renal carcinoma
[6]; median
  delayed onset of myotoxicity, infusions of the drug, median: 4 infusions
[6]; more severe cases
  reversible increases in creatin-kinase (CK): ≤ 3 grade
[6]; most biopsied patients
  light microscopy of muscle: just minimal necrosis or no changes at all
[7]
  doses of aplidine patients were able to tolerate: up to 6000 mcg/m 2
MDA-MB231
  inhibited the growth: 17%
MCF-7
  inhibited the growth: 47%
CT-1
  cytotoxic activity: dose-dependent cytotoxic activity
CT-2
  cytotoxic activity: dose-dependent cytotoxic activity
HT-29
  cytotoxic activity: dose-dependent cytotoxic activity
P388 leukaemia
  activity against implanted tumour: active
  optimal dose: 160 micrograms/kg
B16 melanoma
  activity against implanted tumour: active
  optimal dose: 160 micrograms/kg
Lewis lung carcinomas
  activity in SC implanted lewis lung carcinomas: active
[8]
  concentrations at which cell lines were sensitive: >= 0.001 micromol/L
Human cancer xenografts; 2.1 mg/kg, near complete remissions in some animals
  treated/control (T/C) tumour ratio: 9%
Human cancer xenografts; mice bearing human cancer xenografts
  maximum tolerated dose: 2.1 mg/kg
Gastric tumours
  T/C: 14%
Prostate tumour
  T/C: 25%
[9]
  muscular toxicity (DLT): symptomatic G3 CPK with G2 muscular pain
